Paper PMC6891286, “Towards the Development of an In vivo Chemical Probe for Cyclin G Associated Kinase (GAK)” (Molecules, 2019)

Key:
Assay in all cases: KINOMEscan
Assay type in all cases: binding
MEK4 = biological target: T1, MEK4 (Homo sapiens, UniProt P45985); settings: 35 at 1 µM; read-out: % inhibition
T1 construct: purchased Eurofins DiscoverX (KINOMEscan)
Method: (§1) KinomeScan Assay on 35 was performed as previously described at EuroFins DiscoverX (Fremont, CA, USA).

EGFR(E746-A750del) = biological target: T2, EGFR(E746-A750del) (Homo sapiens, UniProt P00533, DEL746-750); settings: 35 at 1 µM; read-out: % inhibition
T2 construct: purchased Eurofins DiscoverX (KINOMEscan)
Method: as §1

MINK = biological target: T3, MINK (Homo sapiens, UniProt Q8N4C8); settings: 35 at 1 µM; read-out: % inhibition
T3 construct: purchased Eurofins DiscoverX (KINOMEscan)
Method: as §1

MAP4K5 = biological target: T4, MAP4K5 (Homo sapiens, UniProt Q9Y4K4); settings: 35 at 1 µM; read-out: % inhibition
T4 construct: purchased Eurofins DiscoverX (KINOMEscan)
Method: as §1

DRAK2 = biological target: T5, DRAK2 (Homo sapiens, UniProt O94768); settings: 35 at 1 µM; read-out: % inhibition
T5 construct: purchased Eurofins DiscoverX (KINOMEscan)
Method: as §1

PIK3CG = biological target: T6, PIK3CG (Homo sapiens, UniProt P48736); settings: 35 at 1 µM; read-out: % inhibition
T6 construct: purchased Eurofins DiscoverX (KINOMEscan)
Method: as §1

NIK = biological target: T7, NIK (Homo sapiens, UniProt Q99558); settings: 35 at 1 µM; read-out: % inhibition
T7 construct: purchased Eurofins DiscoverX (KINOMEscan)
Method: as §1

PRKX = biological target: T8, PRKX (Homo sapiens, UniProt P51817); settings: 35 at 1 µM; read-out: % inhibition
T8 construct: purchased Eurofins DiscoverX (KINOMEscan)
T8 sequence (P51817 whole entry): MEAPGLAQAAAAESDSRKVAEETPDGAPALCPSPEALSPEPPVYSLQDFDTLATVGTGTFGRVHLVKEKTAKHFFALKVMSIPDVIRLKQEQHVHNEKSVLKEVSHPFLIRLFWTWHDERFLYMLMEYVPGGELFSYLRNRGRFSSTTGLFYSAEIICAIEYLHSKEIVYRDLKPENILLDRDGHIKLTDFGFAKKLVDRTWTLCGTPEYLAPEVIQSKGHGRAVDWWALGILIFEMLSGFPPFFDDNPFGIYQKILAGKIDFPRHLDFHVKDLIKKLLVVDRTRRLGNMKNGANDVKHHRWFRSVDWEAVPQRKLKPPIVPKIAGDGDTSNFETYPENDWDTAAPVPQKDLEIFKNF
Method: as §1

WEE1 = biological target: T9, WEE1 (Homo sapiens, UniProt P30291); settings: 35 at 1 µM; read-out: % inhibition
T9 construct: purchased EuroFins DiscoverX (Fremont, CA, USA)
Method: as §1

SRMS = biological target: T10, SRMS (Homo sapiens, UniProt Q9H3Y6); settings: 35 at 1 µM; read-out: % inhibition
T10 construct: purchased Eurofins DiscoverX (KINOMEscan)
Method: as §1

TRKA = biological target: T11, TRKA (Homo sapiens, UniProt P04629); settings: 35 at 1 µM; read-out: % inhibition
T11 construct: purchased Eurofins DiscoverX (KINOMEscan)
Method: as §1

PKNB(M.tuberculosis) = biological target: T12, PKNB(M.tuberculosis) (Mycobacterium tuberculosis, UniProt P9WI81); settings: 35 at 1 µM; read-out: % inhibition
T12 construct: purchased Eurofins DiscoverX (KINOMEscan)
Method: as §1

PIKFYVE = biological target: T13, PIKFYVE (Homo sapiens, UniProt Q9Y2I7); settings: 35 at 1 µM; read-out: % inhibition
T13 construct: purchased Eurofins DiscoverX (KINOMEscan)
Method: as §1

CAMK2A = biological target: T14, CAMK2A (Homo sapiens, UniProt Q9UQM7); settings: 35 at 1 µM; read-out: % inhibition
T14 construct: purchased Eurofins DiscoverX (KINOMEscan)
Method: as §1

MAP3K1 = biological target: T15, MAP3K1 (Homo sapiens, UniProt Q13233); settings: 35 at 1 µM; read-out: % inhibition
T15 construct: purchased Eurofins DiscoverX (KINOMEscan)
T15 sequence (Q13233 whole entry): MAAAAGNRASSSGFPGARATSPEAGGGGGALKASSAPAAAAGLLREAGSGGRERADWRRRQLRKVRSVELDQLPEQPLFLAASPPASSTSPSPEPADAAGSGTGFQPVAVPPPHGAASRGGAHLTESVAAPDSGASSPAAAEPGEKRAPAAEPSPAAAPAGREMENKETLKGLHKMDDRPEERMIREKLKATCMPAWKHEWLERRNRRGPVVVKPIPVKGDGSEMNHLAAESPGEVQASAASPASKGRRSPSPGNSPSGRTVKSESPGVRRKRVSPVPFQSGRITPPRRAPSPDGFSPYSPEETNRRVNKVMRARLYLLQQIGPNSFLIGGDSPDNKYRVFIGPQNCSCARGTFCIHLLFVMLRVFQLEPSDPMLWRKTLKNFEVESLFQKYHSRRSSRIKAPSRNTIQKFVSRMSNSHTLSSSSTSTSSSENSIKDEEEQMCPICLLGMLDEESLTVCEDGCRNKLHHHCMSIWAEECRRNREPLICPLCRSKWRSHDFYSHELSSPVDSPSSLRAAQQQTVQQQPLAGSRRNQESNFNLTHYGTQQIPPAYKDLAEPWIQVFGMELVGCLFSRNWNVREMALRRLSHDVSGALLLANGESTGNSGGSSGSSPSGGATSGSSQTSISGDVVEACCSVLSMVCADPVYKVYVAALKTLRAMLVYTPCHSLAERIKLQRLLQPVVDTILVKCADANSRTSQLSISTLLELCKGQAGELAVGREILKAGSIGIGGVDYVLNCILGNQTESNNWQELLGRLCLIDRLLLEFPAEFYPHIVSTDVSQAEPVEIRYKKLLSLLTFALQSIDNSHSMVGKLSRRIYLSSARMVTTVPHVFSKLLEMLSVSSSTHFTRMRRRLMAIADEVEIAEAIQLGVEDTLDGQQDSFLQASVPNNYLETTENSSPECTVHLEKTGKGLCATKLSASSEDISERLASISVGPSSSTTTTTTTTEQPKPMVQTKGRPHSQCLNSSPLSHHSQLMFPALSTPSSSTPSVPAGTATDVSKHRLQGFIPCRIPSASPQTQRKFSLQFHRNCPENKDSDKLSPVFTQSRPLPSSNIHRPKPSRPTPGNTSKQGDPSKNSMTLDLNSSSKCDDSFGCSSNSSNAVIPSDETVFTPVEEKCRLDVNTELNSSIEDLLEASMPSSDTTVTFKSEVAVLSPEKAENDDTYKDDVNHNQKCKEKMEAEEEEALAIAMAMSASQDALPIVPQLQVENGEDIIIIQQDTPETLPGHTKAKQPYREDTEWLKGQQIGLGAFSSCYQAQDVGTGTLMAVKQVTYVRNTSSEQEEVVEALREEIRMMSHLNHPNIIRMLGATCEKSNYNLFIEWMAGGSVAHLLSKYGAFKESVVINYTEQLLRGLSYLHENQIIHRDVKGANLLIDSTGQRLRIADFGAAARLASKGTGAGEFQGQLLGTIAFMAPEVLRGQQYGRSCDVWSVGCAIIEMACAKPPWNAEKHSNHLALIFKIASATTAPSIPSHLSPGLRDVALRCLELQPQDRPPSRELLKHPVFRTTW
Method: as §1

TIE1 = biological target: T16, TIE1 (Homo sapiens, UniProt P35590); settings: 35 at 1 µM; read-out: % inhibition
T16 construct: purchased Eurofins DiscoverX (KINOMEscan)
Method: as §1

BMPR1B = biological target: T17, BMPR1B (Homo sapiens, UniProt O00238); settings: 35 at 1 µM; read-out: % inhibition
T17 construct: purchased Eurofins DiscoverX (KINOMEscan)
Method: as §1

PIP5K1A = biological target: T18, PIP5K1A (Homo sapiens, UniProt Q99755); settings: 35 at 1 µM; read-out: % inhibition
T18 construct: purchased Eurofins DiscoverX (KINOMEscan)
Method: as §1

[1] = biological target: T19, RPS6KA5(Kin.Dom.1-N-terminal) (Homo sapiens, UniProt O75582); settings: 35 at 1 µM; read-out: % inhibition
T19 construct: RPS6KA5(Kin.Dom.1-N-terminal); purchased Eurofins DiscoverX (KINOMEscan)
Method: as §1

BLK = biological target: T20, BLK (Homo sapiens, UniProt P51451); settings: 35 at 1 µM; read-out: % inhibition
T20 construct: purchased Eurofins DiscoverX (KINOMEscan)
T20 sequence (P51451 whole entry): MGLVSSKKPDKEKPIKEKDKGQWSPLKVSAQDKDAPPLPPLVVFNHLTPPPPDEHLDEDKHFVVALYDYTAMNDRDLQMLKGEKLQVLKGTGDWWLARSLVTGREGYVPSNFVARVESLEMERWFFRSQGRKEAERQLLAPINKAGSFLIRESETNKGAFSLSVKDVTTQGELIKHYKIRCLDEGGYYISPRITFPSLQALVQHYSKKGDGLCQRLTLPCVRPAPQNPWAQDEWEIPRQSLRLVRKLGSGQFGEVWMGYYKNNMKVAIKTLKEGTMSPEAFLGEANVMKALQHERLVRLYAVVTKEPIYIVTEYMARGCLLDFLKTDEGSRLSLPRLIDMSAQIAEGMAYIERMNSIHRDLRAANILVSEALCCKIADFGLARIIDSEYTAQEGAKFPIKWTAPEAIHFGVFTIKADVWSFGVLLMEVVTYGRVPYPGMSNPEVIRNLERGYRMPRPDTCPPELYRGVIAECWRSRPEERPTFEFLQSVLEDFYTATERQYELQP
Method: as §1

PRKCD = biological target: T21, PRKCD (Homo sapiens, UniProt Q05655); settings: 35 at 1 µM; read-out: % inhibition
T21 construct: purchased Eurofins DiscoverX (KINOMEscan)
Method: as §1

MAPKAPK5 = biological target: T22, MAPKAPK5 (Homo sapiens, UniProt Q8IW41); settings: 35 at 1 µM; read-out: % inhibition
T22 construct: purchased Eurofins DiscoverX (KINOMEscan)
Method: as §1

EPHB6 = biological target: T23, EPHB6 (Homo sapiens, UniProt O15197); settings: 35 at 1 µM; read-out: % inhibition
T23 construct: purchased Eurofins DiscoverX (KINOMEscan)
Method: as §1

PCTK2 = biological target: T24, PCTK2 (Homo sapiens, UniProt Q00537); settings: 35 at 1 µM; read-out: % inhibition
T24 construct: purchased Eurofins DiscoverX (KINOMEscan)
Method: as §1

EPHB2 = biological target: T25, EPHB2 (Homo sapiens, UniProt P29323); settings: 35 at 1 µM; read-out: % inhibition
T25 construct: purchased Eurofins DiscoverX (KINOMEscan)
T25 sequence (P29323 19-1055): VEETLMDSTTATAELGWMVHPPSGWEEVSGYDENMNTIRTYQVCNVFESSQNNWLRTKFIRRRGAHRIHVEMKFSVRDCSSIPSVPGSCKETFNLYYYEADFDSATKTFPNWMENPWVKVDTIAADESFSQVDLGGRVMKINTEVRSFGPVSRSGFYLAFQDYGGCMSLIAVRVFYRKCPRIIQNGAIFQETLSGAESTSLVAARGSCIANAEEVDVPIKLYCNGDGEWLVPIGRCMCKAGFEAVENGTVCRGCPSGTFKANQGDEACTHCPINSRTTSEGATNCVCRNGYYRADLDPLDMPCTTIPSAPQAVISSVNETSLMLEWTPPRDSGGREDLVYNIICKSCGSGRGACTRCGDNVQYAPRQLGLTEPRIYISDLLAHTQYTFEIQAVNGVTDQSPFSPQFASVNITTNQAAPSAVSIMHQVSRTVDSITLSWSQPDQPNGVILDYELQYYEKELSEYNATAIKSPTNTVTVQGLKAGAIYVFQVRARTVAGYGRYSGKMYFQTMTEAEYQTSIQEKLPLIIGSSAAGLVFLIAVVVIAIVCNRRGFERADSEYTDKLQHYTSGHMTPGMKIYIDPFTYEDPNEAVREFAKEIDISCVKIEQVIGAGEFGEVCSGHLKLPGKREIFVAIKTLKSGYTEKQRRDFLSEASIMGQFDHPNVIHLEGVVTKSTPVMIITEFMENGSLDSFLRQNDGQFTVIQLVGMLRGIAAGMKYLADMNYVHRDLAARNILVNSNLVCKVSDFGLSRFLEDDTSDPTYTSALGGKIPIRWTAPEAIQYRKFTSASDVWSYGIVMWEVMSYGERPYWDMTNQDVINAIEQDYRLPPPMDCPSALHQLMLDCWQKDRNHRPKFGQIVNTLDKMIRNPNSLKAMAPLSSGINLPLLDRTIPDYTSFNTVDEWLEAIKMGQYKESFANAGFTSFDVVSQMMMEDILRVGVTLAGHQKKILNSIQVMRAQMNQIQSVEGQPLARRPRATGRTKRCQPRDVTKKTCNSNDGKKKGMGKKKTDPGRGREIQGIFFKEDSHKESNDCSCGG
Method: as §1

PCTK1 = biological target: T26, PCTK1 (Homo sapiens, UniProt Q00536); settings: 35 at 1 µM; read-out: % inhibition
T26 construct: purchased Eurofins DiscoverX (KINOMEscan)
Method: as §1

MET(M1250T) = biological target: T27, MET(M1250T) (Homo sapiens, UniProt P08581, M1250T); settings: 35 at 1 µM; read-out: % inhibition
T27 construct: purchased Eurofins DiscoverX (KINOMEscan)
Method: as §1

MST1 = biological target: T28, MST1 (Homo sapiens, UniProt Q13043); settings: 35 at 1 µM; read-out: % inhibition
T28 construct: purchased Eurofins DiscoverX (KINOMEscan)
Method: as §1

FGFR2 = biological target: T29, FGFR2 (Homo sapiens, UniProt P21802); settings: 35 at 1 µM; read-out: % inhibition
T29 construct: purchased Eurofins DiscoverX (KINOMEscan)
Method: as §1

PHKG2 = biological target: T30, PHKG2 (Homo sapiens, UniProt P15735); settings: 35 at 1 µM; read-out: % inhibition
T30 construct: purchased Eurofins DiscoverX (KINOMEscan)
Method: as §1

LATS1 = biological target: T31, LATS1 (Homo sapiens, UniProt O95835); settings: 35 at 1 µM; read-out: % inhibition
T31 construct: purchased Eurofins DiscoverX (KINOMEscan)
T31 sequence (O95835 whole entry): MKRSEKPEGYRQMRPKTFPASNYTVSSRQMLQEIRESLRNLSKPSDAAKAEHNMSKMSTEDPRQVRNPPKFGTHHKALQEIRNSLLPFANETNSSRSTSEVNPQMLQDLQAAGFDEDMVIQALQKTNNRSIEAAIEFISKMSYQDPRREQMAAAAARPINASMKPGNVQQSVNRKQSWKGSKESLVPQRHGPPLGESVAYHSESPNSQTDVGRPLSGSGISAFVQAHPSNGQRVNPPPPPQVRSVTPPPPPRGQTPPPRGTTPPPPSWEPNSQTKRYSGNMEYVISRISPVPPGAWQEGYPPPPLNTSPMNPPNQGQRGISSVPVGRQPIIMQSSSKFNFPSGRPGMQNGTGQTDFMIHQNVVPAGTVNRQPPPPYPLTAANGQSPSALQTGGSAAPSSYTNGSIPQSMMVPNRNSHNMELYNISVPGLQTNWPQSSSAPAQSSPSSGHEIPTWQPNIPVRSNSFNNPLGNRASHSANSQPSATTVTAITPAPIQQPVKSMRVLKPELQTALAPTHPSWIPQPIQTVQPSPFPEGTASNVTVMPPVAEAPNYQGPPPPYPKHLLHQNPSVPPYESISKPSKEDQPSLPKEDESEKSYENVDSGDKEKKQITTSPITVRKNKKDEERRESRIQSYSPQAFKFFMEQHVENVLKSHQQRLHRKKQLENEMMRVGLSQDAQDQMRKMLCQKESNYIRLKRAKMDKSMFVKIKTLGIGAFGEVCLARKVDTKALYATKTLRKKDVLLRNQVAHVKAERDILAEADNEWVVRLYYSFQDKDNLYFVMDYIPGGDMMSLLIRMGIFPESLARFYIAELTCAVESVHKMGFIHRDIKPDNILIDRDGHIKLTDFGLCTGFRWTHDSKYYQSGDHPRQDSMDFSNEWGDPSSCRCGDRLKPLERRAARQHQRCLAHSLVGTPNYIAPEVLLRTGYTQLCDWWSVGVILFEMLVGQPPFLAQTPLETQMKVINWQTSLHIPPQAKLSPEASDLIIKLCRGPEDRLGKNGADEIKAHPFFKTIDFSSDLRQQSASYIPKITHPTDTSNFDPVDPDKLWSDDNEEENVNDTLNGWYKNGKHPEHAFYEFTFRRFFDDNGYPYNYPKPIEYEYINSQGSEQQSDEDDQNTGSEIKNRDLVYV
Method: as §1

FLT3(N841I) = biological target: T32, FLT3(N841I) (Homo sapiens, UniProt P36888, N841I); settings: 35 at 1 µM; read-out: % inhibition
T32 construct: purchased Eurofins DiscoverX (KINOMEscan)
Method: as §1

PIK3CA(E545A) = biological target: T33, PIK3CA(E545A) (Homo sapiens, UniProt P42336, E545A); settings: 35 at 1 µM; read-out: % inhibition
T33 construct: purchased Eurofins DiscoverX (KINOMEscan)
Method: as §1

ACVRL1 = biological target: T34, ACVRL1 (Homo sapiens, UniProt P37023); settings: 35 at 1 µM; read-out: % inhibition
T34 construct: purchased Eurofins DiscoverX (KINOMEscan)
Method: as §1

PIK3CA(H1047Y) = biological target: T35, PIK3CA(H1047Y) (Homo sapiens, UniProt P42336, H1047Y); settings: 35 at 1 µM; read-out: % inhibition
T35 construct: purchased Eurofins DiscoverX (KINOMEscan)
Method: as §1

ZAK = biological target: T36, ZAK (Homo sapiens, UniProt Q9NYL2); settings: 35 at 1 µM; read-out: % inhibition
T36 construct: purchased EuroFins DiscoverX (Fremont, CA, USA)
Method: as §1

MAST1 = biological target: T37, MAST1 (Homo sapiens, UniProt Q9Y2H9); settings: 35 at 1 µM; read-out: % inhibition
T37 construct: purchased Eurofins DiscoverX (KINOMEscan)
Method: as §1

TNK1 = biological target: T38, TNK1 (Homo sapiens, UniProt Q13470); settings: 35 at 1 µM; read-out: % inhibition
T38 construct: purchased Eurofins DiscoverX (KINOMEscan)
Method: as §1

[2] = biological target: T39, ABL1(F317I)-phosphorylated (Homo sapiens, UniProt P00519, F317I); settings: 35 at 1 µM; read-out: % inhibition
T39 construct: purchased Eurofins DiscoverX (KINOMEscan)
Method: as §1

RIPK2 = biological target: T40, RIPK2 (Homo sapiens, UniProt O43353)
T40 construct: purchased Eurofins DiscoverX (KINOMEscan)
T40 sequence (O43353 whole entry): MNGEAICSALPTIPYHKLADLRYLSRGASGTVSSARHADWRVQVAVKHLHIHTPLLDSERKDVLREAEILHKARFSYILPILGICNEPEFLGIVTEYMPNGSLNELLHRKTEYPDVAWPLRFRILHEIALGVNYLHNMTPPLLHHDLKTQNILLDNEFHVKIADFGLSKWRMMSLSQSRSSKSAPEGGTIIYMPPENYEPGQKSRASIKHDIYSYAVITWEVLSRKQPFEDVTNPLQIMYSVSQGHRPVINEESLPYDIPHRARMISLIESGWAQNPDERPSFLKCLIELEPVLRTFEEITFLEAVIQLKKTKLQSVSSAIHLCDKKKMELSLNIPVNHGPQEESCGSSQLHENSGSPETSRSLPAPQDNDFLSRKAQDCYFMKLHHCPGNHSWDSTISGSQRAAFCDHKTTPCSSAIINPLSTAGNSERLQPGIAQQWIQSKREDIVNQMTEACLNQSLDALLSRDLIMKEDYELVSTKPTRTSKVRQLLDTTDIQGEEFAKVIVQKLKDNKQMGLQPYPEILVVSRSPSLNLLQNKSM
Method: as §1

TNNI3K = biological target: T41, TNNI3K (Homo sapiens, UniProt Q59H18); settings: 35 at 1 µM; read-out: % inhibition
T41 construct: purchased Eurofins DiscoverX (KINOMEscan)
Method: as §1

RIPK1 = biological target: T42, RIPK1 (Homo sapiens, UniProt Q13546); settings: 35 at 1 µM; read-out: % inhibition
T42 construct: purchased Eurofins DiscoverX (KINOMEscan)
Method: as §1

Brc1ccc2nccc(Nc3ccc4cn[nH]c4c3)c2c1 [Compound 35, 6-Bromo-N-(1H-indazol-6-yl)quinolin-4-amine] was tested, and the activity at 1 µM (MEK4) was 100%, the activity at 1 µM (EGFR(E746-A750del)) was 79% and the activity at 1 µM (MINK) was 100%. The activity at 1 µM (MAP4K5) was 100%, the activity at 1 µM (DRAK2) was 100% and the activity at 1 µM (PIK3CG) was 100%. The activity at 1 µM (NIK) was 100%, the activity at 1 µM (PRKX) was 100% and the activity at 1 µM (WEE1) was 100%. For the same compound, the activity at 1 µM (SRMS) was 87%, the activity at 1 µM (TRKA) was 100% and the activity at 1 µM (PKNB(M.tuberculosis)) was 77%. For the same compound, the activity at 1 µM (PIKFYVE) was 100%, the activity at 1 µM (CAMK2A) was 100% and the activity at 1 µM (MAP3K1) was 86%. The activity at 1 µM (TIE1) was 100%, the activity at 1 µM (BMPR1B) was 91% and the activity at 1 µM (PIP5K1A) was 100%. For the same compound, the activity at 1 µM [1] was 100%, the activity at 1 µM (BLK) was 96% and the activity at 1 µM (PRKCD) was 100%. The activity at 1 µM (MAPKAPK5) was 100%, the activity at 1 µM (EPHB6) was 100% and the activity at 1 µM (PCTK2) was 100%. The activity at 1 µM (EPHB2) was 100%, the activity at 1 µM (PCTK1) was 98% and the activity at 1 µM (MET(M1250T)) was 100%. For the same compound, the activity at 1 µM (MST1) was 100%, the activity at 1 µM (FGFR2) was 100% and the activity at 1 µM (PHKG2) was 95%. For the same compound, the activity at 1 µM (LATS1) was 100%, the activity at 1 µM (FLT3(N841I)) was 90% and the activity at 1 µM (PIK3CA(E545A)) was 98%. For the same compound, the activity at 1 µM (ACVRL1) was 100%, the activity at 1 µM (PIK3CA(H1047Y)) was 100% and the activity at 1 µM (ZAK) was 100%. The activity at 1 µM (MAST1) was 100%, the activity at 1 µM (TNK1) was 69% and the activity at 1 µM [2] was 100%. For the same compound, the activity at 1 µM (RIPK2; 35 at 1 µM, read-out: % inhibition) was 29%, the inhibition at 1 µM (RIPK2; KinomeScan, screened at 1 μM, read-out: kinases inhibited at 1 μM: RIPK2) was 71% and the activity at 1 µM (TNNI3K) was 100%. It also gave an activity at 1 µM (RIPK1) of 100%.
